# Data reported in patent US9863956B2, “Differentiation of isobaric amino acids and other species” (Agency for Science, Technology and Research, priority 2009, dated 2018).
# Where no end group is shown, it is not given here.
# Experiments:
# [1] = target: bCAII (Bos taurus, UniProt P00921); assay: SPR affinity measurement (Biacore 3000) of peptide on immobilized bCAII; format: binding, bovine
# Experimental: Affinity measurements were performed using a Biacore 3000 system (GE Heathcare) equipped with research grade CM5 sensor chips (GE Healthcare). The CM5 sensor chip was preconditioned after docking and priming the instrument with HBS-EP (GE Heathcare) buffer. Flow cell 1 (or 3) was used as a reference to subtract nonspecific binding, drift, and bulk refractive index. Using a flow rate of 20 microliters/min, the sensor chip's four flow cells were activated at 25° C. with a 7 min injection of amine-coupling kit (GE Healthcare) (1:1 mixture of 0.4 M EDC and 0.1 M NHS). To create a bCAII surface, 1 mg of bCAII was dissolved in 1 mL of 10 mM sodium acetate (pH 5.0) and injected across flow cell 2 only. Approximately 1000 response units (RU) of bCAII were immobilized onto this surface. Finally, 1.0 M ethanolamine (pH 8.5) was injected across the four flow cells for 4 min to deactivate the surfaces. After bCAII immobilization, the instrument was primed three times using running buffer (1×PBS+3% DMSO). HIRYKR (SEQ ID NO: 2) peptide (26.13 micrograms) was dissolved in 18 microliters DMSO and diluted with HBS-EP buffer to produce a 50 micromolar peptide stock solution. The peptide stock solution was serially diluted by a factor of 2 to a concentration of 390 nM. […]
# [2] = target: bovine carbonic anhydrase (bCAII) (Bos taurus, UniProt P00921); assay: OBOC hexamer peptide library screening with Alexa Fluor 647 labeled bCAII, COPAS Plus bead sorting; format: binding; conditions: 50 nM dye labeled bCAII, 15 hr at 25° C.; on-bead peptide
# bovine carbonic anhydrase (bCAII), sequence (P00921 whole entry): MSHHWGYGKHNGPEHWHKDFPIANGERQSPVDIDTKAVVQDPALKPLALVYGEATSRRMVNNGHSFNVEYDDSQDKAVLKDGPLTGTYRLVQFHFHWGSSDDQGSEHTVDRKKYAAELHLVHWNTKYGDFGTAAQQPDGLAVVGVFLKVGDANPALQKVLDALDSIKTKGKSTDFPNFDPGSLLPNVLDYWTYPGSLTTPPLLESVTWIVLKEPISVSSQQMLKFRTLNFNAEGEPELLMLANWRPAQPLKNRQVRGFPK
# Experimental: Alexa Fluor® 647 protein labeling kit (A20173, Invitrogen) was chosen as the reactive dye for labeling bovine carbonic anhydrase (bCAII) following the supplier's protocol. Briefly, 2 mg/mL of bCAII in 0.1 M sodium bicarbonate (pH ˜8.3) was transferred 0.5 mL of bCAII solution into the vial of the reactive dye, and the vial was capped and inverted several times to dissolve the dye completely. The reaction mixture was stirred for 1 hr at room temperature under dark conditions. The Alexa Fluro® 647 labeled bCAII (bCAII-A647) was purified from the mixture using the size exclusion purification resin in the kit. Purified and labeled bCAII-A647 was characterized by NanoDrop (Thermo Scientific) and gel documentation (Typhoon) after SDS-PAGE. […]
# Hit beads were sorted into cone-shaped wells of a 96 well plate using a COPAS Plus. […] The gating region was defined for beads based on their time-of-flight (TOF) and red fluorescence, and the sorting region was chosen for selecting beads based on their time-of-flight (TOF) and uniformity red fluorescence after incubation with bCAII-A647. […] The TOF, red fluorescence, and red fluorescence peak height of the beads were detected using a red diode laser (λ=635 nm). Due to the auto-fluorescence of the beads, the argon ion laser was intentionally turned off to minimize bleed-through effect. […]
# bCAII, sequence (P00921 whole entry): as above
"dissociation constant (KD) ([1]; 1:1 Langmuir binding fit, 25° C., peptide 50 micromolar to 390 nM)",binding affinity to the protein bCAII ([1]; conclusion in words),hit in library screening against bCAII (bead fluorescence) [2],Substance
micromolar range,significant binding affinity,hit peptide from the brightest bead,"HIRYKR [hit hexamer peptide from OBOC library screened against bCAII, re-synthesized from Fmoc D-amino acids with a carboxamide C-terminus]"
,,hit peptide,"IQHKRF (not fully specified (residues 1, 2, 3, 4, 5, 6, C-terminus); also: D-amino acids, which residues not given here)"
